Data as given in article PMC3581588, “Foam Cell Specific LXRα Ligand” (PLoS ONE, 2013).
Read-outs that look alike come from different tables or passages of the source.

Tests used:
[1] = molecular target: T1, LXRα ligand binding domain (Homo sapiens, UniProt Q13133); assay: dual luciferase reporter gene assay, LXRα-LBD/GAL4-DBD in HEK-293 cells; type: cell-based
T1 construct: expressed in transfected cells; host or cells: HEK-293
T1 sequence (Q13133 164-447): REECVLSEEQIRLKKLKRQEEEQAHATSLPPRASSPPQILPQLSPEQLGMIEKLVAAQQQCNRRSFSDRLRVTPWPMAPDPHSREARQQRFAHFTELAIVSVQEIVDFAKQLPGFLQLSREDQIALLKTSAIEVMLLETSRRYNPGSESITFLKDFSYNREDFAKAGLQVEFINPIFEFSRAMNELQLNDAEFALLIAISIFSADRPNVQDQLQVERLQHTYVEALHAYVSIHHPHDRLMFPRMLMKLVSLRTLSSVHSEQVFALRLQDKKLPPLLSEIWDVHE
Protocol: (§1) The ligand binding domain (LBD) of LXRα (amino acids 164 to 447) or LXRβ (amino acids 154 to 461) was cloned into pBIND [Renilla/Amp] vector (Promega). Selection and amplification were performed in E. coli cells. Purification of the plasmids was performed with a plasmid purification kit (Qiagen). For transfection HEK-293 cells were plated in 96-well plates (TPP) at a density of 3.5×10^4 cells/well for 24 h. To investigate the ligand binding on LXRα ligand binding domain, 0.04 ng of renilla luciferase coding plasmide pGL4.75 (Promega), 0.04 ng of LXRα-LBD/GAL4-DBD plasmide and 80 ng of firefly luciferase coding plasmide pGL4.31 (Promega) were used in a total volume of 200 µL for each well. For LXRβ binding assay 40 ng of LXRβ-LBD/GAL4-DBD plasmide were applied in each transfection mix. Transfection was carried out for 4 h with Lipofectamine 2000 Transfection Reagent (Invitrogen) in Opti-MEM medium (Invitrogen). Ligand treatment was performed at different concentrations for 24 h. For lysis and detection dual-luciferase reporter gene assay system (Promega) and POLARstar Omega (BMG LABTECH) were used.

THP1-derived foam cells [2] = assay: cholesterol and triglyceride content in foam cells; type: cell-based, human; conditions: 10 µM, 48 h, vs. DMSO
Protocol: (§2) We used the human THP1 cell line, which is widely applied as a macrophage and foam cell model with similar properties as primary cells. […] For generating macrophages differentiation was induced by 10^−8 M Phorbol 12-myristate 13-acetate (PMA) (Sigma-Aldrich) for 48 h. Ligand treatment of macrophages was performed for further 24 h. To induce foam cell formation macrophages were treated for additional 48 h with 100 µg/mL modified human oxidized low density lipoprotein (oxLDL) obtained from Source BioScience (RP-048). Ligand treatment was performed simultaneously with foam cell formation. Cholesterol loading and treatment was controlled with Oil Red O staining (Alfa Aeser). To investigate ligand induced effects on cell proliferation of THP-1 macrophages CellTiter-Glo Luminescent Cell Viability Assay (Promega) was utilized.
(§3) THP-1 monocytes were plated out into 24-well plates (Nunc) at a density of 2×10^5 cells/well. After differentiation and treatment cells were lysed with 100 µL lysis buffer (PBS, 0.25 M NaCl, 1% Triton X-100). Total and free cholesterol were determined using the colorimetric enzymatic Amplex Red Cholesterol Assay Kit (Invitrogen). Triglycerides were quantified by Triglyceride Assay Kit (BioVision). For normalisation protein content was determined with Pierce 660 nm Protein Assay Reagent (Thermo Scientific).

THP-1 macrophages [3] = assay: triglyceride content in macrophages; type: cell-based, human; conditions: 10 µM, 48 h, vs. DMSO
Protocol: as §2, §3

[4] = molecular target: T2, LXRβ ligand binding domain (Homo sapiens, UniProt P55055); assay: dual luciferase reporter gene assay, LXRβ-LBD/GAL4-DBD in HEK-293 cells; type: cell-based
T2 construct: expressed in transfected cells; host or cells: HEK-293
T2 sequence (P55055 154-460 limits assumed): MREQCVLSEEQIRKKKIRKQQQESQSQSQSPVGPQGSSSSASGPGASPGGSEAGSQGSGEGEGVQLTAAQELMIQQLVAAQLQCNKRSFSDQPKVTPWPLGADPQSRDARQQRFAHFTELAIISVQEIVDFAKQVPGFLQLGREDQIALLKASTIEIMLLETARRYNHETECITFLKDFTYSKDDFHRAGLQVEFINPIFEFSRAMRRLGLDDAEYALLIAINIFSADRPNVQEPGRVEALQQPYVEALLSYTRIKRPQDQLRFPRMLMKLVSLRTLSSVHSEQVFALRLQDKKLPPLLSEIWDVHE
Protocol: as §1

THP-1 macrophages [5] = assay: gene expression of LXRα target genes (qPCR) in THP-1 macrophages; type: cell-based, human; conditions: for expression of LXRα target genes (LXRα, SREBF1, ABCA1, APOE): 10 µM, 24 h
Protocol: as §2
(§4) Total RNA isolation and purification was performed by using the RNeasy Mini Kit (QIAGEN) and RNase-Free DNase Set (QIAGEN). cDNA was generated by reverse transcription using the High Capacity cDNA Reverse Transcription Kit (Life Technologies). Gene expression was quantified using the SYBR Green PCR Master Mix (Life Technologies) and ABI 7900HT Fast Real Time PCR System (Life Technologies). In each reaction 0.8 ng/µL cDNA and 0.2 µM primers were used. Gene expression was calculated with the ΔΔCt-method. ß-Actin was used for normalisation.

THP1-derived foam cells [6] = assay: Western blot of LXRα and APOE in foam cells; type: cell-based, human; conditions: Western blot densitometry
Protocol: as §2
Whole cell extracts were harvested from three biological replicates and denaturized for SDS-PAGE (NuPAGE Novex 4–12% Bis-Tris Gels). Proteins were blotted on nitrocellulose Hybond ECL membrane and incubated with strictly validated published antibodies against LXRα (Abcam, ab 41902), APOE (Abcam ab1906), and as housekeeping protein control β-Actin (Santa Cruz Biotechnology, sc-47778, C4). […] This tool measures quantitatively the optical density and provides more accurate data than simple eye-observations. […]

THP1-derived foam cells [7] = assay: gene expression of LXRα target genes (qPCR) in oxLDL-loaded foam cells; type: cell-based, human; conditions: 10 µM
Protocol: as §2, §4

[8] = +DMSO, transcriptional activation vs. T09

Compound `CC(C)CC[C@@H](O)[C@@H](C)[C@H]1CC[C@H]2[C@@H]3CC=C4C[C@@H](O)CC[C@]4(C)[C@H]3CC[C@]12C` [22-R-Hydroxycholesterol, reference compound] has an EC50 [1] of 13300 nM and an Efficacy [1, 8] of 4%.

`C(=C\c1ccc(OCC2CO2)cc1)/c1ccccc1` (stereo not drawn) [STX4, 2-[[4-[(E)-styryl]phenoxy]methyl]oxirane] was tested, and the “total and esterified cholesterol content” value (THP1-derived foam cells [2]) was “significant reduction”, the triglyceride levels (THP1-derived foam cells [2]) was “not increased” and the triglyceride level (THP-1 macrophages [3]) was “stayed rather unchanged”. The “Transcriptional activation of LXRβ” value [4] was “does not activate”, the “expression of LXRα target genes (LXRα, SREBF1, ABCA1, APOE)” value (from here on “expression of LXRα target genes”) (THP-1 macrophages [5]) was “not” and the “ABCA1 expression with STX4 in the presence of T09” value (THP-1 macrophages [5]; presence of 1 µM T09) was “additive effects”. The “protein expression levels of LXRα target genes (LXRα, APOE)” value (THP1-derived foam cells [6]) was “increased protein expression levels”, the “expression of LXRα target genes” value (THP1-derived foam cells [7]) was “potent target gene expression similar to T09” and the Efficacy ([1]; +200 nM T0901317 (additive)) was 47%. For the same compound, the EC50 ([1]; +200 nM T0901317 (additive), read-out: EC50) was 28 nM, the EC50 ([1]; +DMSO, LXRα reporter gene, HEK-293, 24 h, read-out: EC50) was 35 nM and the Efficacy [1, 8] was 6%.

In the case of `O=S(=O)(c1ccccc1)N(CC(F)(F)F)c1ccc(C(O)(C(F)(F)F)C(F)(F)F)cc1` [T0901317, reference compound], the “total and esterified cholesterol content” value (THP1-derived foam cells [2]) is reported as “significant reduction”, the triglyceride levels (THP1-derived foam cells [2]) is reported as “increased triglyceride levels” and the triglyceride level (THP-1 macrophages [3]) is reported as “stayed rather unchanged”. For the same compound, the “expression of LXRα target genes” value (THP-1 macrophages [5]) was “increased expression”.
